Data: patent US20160347813A1, “GLUCAGON ANALOGUES” (Zealand Pharma A/S, priority 2011, published 2016)
Residues, ends and D or L forms follow the SMILES beside them.

Assays:
human Glucagon-R = biological target: T1, human Glucagon-R (Homo sapiens, UniProt P47871); test: Glucagon receptor efficacy assay (cAMP generation in HEK293 cells); format: cell-based; details: cAMP generation in HEK293 cells expressing Glucagon receptor
T1 construct: The DNA encoding the Glucagon-R or the GLP-1-R was amplified by PCR using primers encoding terminal restriction sites for subcloning; expressed in transfected cells
From the text: (§1) The DNA encoding the Glucagon-R or the GLP-1-R was amplified by PCR using primers encoding terminal restriction sites for subcloning. The 5′-end primers additionally encoded a near Kozak consensus sequence to ensure efficient translation. The fidelity of the DNA encoding the Glucagon-R and the GLP-1-R was confirmed by DNA sequencing. The PCR products encoding the Glucagon-R or the GLP-1-R were subcloned into a mammalian expression vector containing a neomycin (G418) resistance marker. The mammalian expression vectors encoding the Glucagon-R or the GLP-1-R were transfected into HEK293 cells by a standard calcium phosphate transfection method. 48 hr after transfection cells were seeded for limited dilution cloning and selected with 1 mg/ml G418 in the culture medium. Three weeks later 12 surviving colonies of Glucagon-R and GLP-1-R expressing cells were picked, propagated and tested in the Glucagon-R and GLP-1-R efficacy assays as described below. One Glucagon-R expressing clone and one GLP-1-R expressing clone were chosen for compound profiling.
(§2) On the day of analysis, growth medium was removed and the cells washed once with 200 μl Tyrode buffer. Cells were incubated in 100 μl Tyrode buffer containing increasing concentrations of test peptides, 100 μM IBMX, and 6 mM glucose for up 15 min at 37° C. The reaction was stopped by addition of 25 μl 0.5 M HCl and incubated on ice for 60 min. The cAMP content was estimated using the FlashPlate® cAMP kit from Perkin-Elmer according to manufacturer instructions. EC50 and relative efficacies compared to reference compounds (glucagon and GLP-1) were estimated by computer aided curve fitting.

human GLP-1-R = biological target: T2, human GLP-1-R (Homo sapiens, UniProt P43220); test: GLP-1 receptor efficacy assay (cAMP generation in HEK293 cells); format: cell-based; details: cAMP generation in HEK293 cells expressing GLP-1 receptor
T2 construct: The DNA encoding the Glucagon-R or the GLP-1-R was amplified by PCR using primers encoding terminal restriction sites for subcloning; expressed in transfected cells
From the text: as §1, §2

T1 sequence (P47871 26-477): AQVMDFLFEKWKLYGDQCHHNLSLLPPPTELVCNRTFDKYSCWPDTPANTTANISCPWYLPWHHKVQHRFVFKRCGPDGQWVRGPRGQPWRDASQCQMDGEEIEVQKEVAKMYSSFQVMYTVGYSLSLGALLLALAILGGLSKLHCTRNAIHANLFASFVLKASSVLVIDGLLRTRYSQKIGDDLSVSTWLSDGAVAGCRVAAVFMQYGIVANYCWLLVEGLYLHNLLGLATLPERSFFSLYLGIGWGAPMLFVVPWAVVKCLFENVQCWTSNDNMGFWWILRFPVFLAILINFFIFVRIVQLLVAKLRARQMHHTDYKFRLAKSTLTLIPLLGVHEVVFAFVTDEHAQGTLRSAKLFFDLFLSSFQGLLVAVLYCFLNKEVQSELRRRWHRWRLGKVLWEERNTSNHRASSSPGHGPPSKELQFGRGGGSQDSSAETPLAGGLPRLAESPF
T2 sequence (P43220 24-463): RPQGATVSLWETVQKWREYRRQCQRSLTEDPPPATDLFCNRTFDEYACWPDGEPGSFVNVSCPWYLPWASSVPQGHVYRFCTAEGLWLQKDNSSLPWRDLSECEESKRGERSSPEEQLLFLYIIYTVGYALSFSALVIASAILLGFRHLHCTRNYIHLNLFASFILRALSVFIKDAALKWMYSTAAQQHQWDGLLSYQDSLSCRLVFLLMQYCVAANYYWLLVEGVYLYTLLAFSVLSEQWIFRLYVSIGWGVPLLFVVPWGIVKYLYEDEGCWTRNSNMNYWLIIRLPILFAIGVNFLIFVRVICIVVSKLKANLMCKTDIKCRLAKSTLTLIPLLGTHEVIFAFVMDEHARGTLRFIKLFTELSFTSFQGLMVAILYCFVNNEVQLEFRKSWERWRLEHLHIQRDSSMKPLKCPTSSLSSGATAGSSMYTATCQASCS

Structure (SMILES)	EC50 (human Glucagon-R) [nM]	EC50 (human GLP-1-R) [nM]
CCCCCCCCCCCCCCCC(=O)N[C@@H](CCC(=O)NCCCC[C@H](NC(=O)[C@H](CCC(=O)O)NC(=O)[C@H](CC(=O)O)NC(=O)[C@H](CC(C)C)NC(=O)[C@H](Cc1ccc(O)cc1)NC(=O)[C@H](CCCNC(=N)N)NC(=O)[C@H](CO)NC(=O)[C@H](Cc1ccc(O)cc1)NC(=O)[C@H](CC(=O)O)NC(=O)[C@H](CO)NC(=O)[C@@H](NC(=O)[C@H](Cc1ccccc1)NC(=O)[C@@H](NC(=O)CNC(=O)[C@H](CCC(N)=O)NC(=O)[C@H](CO)NC(=O)[C@@H](N)Cc1c[nH]cn1)[C@@H](C)O)[C@@H](C)O)C(=O)N[C@@H](CCCNC(=N)N)C(=O)N[C@@H](C)C(=O)N[C@@H](CCCNC(=N)N)C(=O)N[C@@H](CC(=O)O)C(=O)N[C@@H](Cc1ccccc1)C(=O)N[C@H](C(=O)N[C@@H](CCC(=O)O)C(=O)N[C@@H](Cc1c[nH]c2ccccc12)C(=O)N[C@@H](CC(C)C)C(=O)N[C@@H](CC(C)C)C(=O)N[C@@H](CO)C(=O)N[C@@H](C)C(N)=O)[C@@H](C)CC)C(=O)O [Compound 7] (HELM PEPTIDE1{H.S.Q.G.T.F.T.S.D.Y.S.R.Y.L.D.E.K.R.A.R.D.F.I.E.W.L.L.S.A.[am]}|PEPTIDE2{[CCCCCCCCCCCCCCCC(=O)[*:2]].[gGlu]}$PEPTIDE1,PEPTIDE2,17:R3-2:R2$$$V2.0)	0.06	0.06
CCCCCCCCCCCCCCCC(=O)N[C@@H](CCC(=O)NCCCC[C@H](NC(=O)[C@H](CCC(=O)O)NC(=O)[C@H](CC(=O)O)NC(=O)[C@H](CC(C)C)NC(=O)[C@H](Cc1ccc(O)cc1)NC(=O)[C@H](CCCNC(=N)N)NC(=O)[C@H](CO)NC(=O)[C@H](Cc1ccc(O)cc1)NC(=O)[C@H](CC(=O)O)NC(=O)[C@H](CO)NC(=O)[C@@H](NC(=O)[C@H](Cc1ccccc1)NC(=O)[C@@H](NC(=O)CNC(=O)[C@H](Cc1c[nH]cn1)NC(=O)[C@H](CO)NC(=O)[C@@H](N)Cc1c[nH]cn1)[C@@H](C)O)[C@@H](C)O)C(=O)N[C@@H](CCCNC(=N)N)C(=O)N[C@@H](C)C(=O)N[C@@H](CCCNC(=N)N)C(=O)N[C@@H](CC(=O)O)C(=O)N[C@@H](Cc1ccccc1)C(=O)N[C@H](C(=O)N[C@@H](CCC(=O)O)C(=O)N[C@@H](Cc1c[nH]c2ccccc12)C(=O)N[C@@H](CC(C)C)C(=O)N[C@@H](CC(C)C)C(=O)N[C@@H](CO)C(=O)N[C@@H](C)C(N)=O)[C@@H](C)CC)C(=O)O [Compound 10] (HELM PEPTIDE1{H.S.H.G.T.F.T.S.D.Y.S.R.Y.L.D.E.K.R.A.R.D.F.I.E.W.L.L.S.A.[am]}|PEPTIDE2{[CCCCCCCCCCCCCCCC(=O)[*:2]].[gGlu]}$PEPTIDE1,PEPTIDE2,17:R3-2:R2$$$V2.0)	0.06	–
CCCCCCCCCCCCCCCC(=O)N[C@@H](CCC(=O)NCCCC[C@H](NC(=O)[C@H](CCC(=O)O)NC(=O)[C@H](CC(=O)O)NC(=O)[C@H](CC(C)C)NC(=O)[C@H](Cc1ccc(O)cc1)NC(=O)[C@H](CCCNC(=N)N)NC(=O)[C@H](CO)NC(=O)[C@H](Cc1ccc(O)cc1)NC(=O)[C@H](CC(=O)O)NC(=O)[C@H](CO)NC(=O)[C@@H](NC(=O)[C@H](Cc1ccccc1)NC(=O)[C@@H](NC(=O)CNC(=O)[C@H](Cc1c[nH]cn1)NC(=O)[C@@H](CO)NC(=O)[C@@H](N)Cc1c[nH]cn1)[C@@H](C)O)[C@@H](C)O)C(=O)N[C@@H](CCCNC(=N)N)C(=O)N[C@@H](C)C(=O)N[C@@H](CCCNC(=N)N)C(=O)N[C@@H](CC(=O)O)C(=O)N[C@@H](Cc1ccccc1)C(=O)N[C@H](C(=O)N[C@@H](CCC(=O)O)C(=O)N[C@@H](Cc1c[nH]c2ccccc12)C(=O)N[C@@H](CC(C)C)C(=O)N[C@@H](CC(C)C)C(=O)N[C@@H](CO)C(=O)N[C@@H](C)C(N)=O)[C@@H](C)CC)C(=O)O [Compound 11] (HELM PEPTIDE1{H.[dS].H.G.T.F.T.S.D.Y.S.R.Y.L.D.E.K.R.A.R.D.F.I.E.W.L.L.S.A.[am]}|PEPTIDE2{[CCCCCCCCCCCCCCCC(=O)[*:2]].[gGlu]}$PEPTIDE1,PEPTIDE2,17:R3-2:R2$$$V2.0)	0.09	–
CCCCCCCCCCCCCCCC(=O)N[C@@H](CCC(=O)NCCCC[C@H](NC(=O)[C@H](CCC(=O)O)NC(=O)[C@H](CC(=O)O)NC(=O)[C@H](CC(C)C)NC(=O)[C@H](Cc1ccc(O)cc1)NC(=O)[C@H](CCCCN)NC(=O)[C@H](CO)NC(=O)[C@H](Cc1ccc(O)cc1)NC(=O)[C@H](CC(=O)O)NC(=O)[C@H](CO)NC(=O)[C@@H](NC(=O)[C@H](Cc1ccccc1)NC(=O)[C@@H](NC(=O)CNC(=O)[C@H](CCC(N)=O)NC(=O)[C@@H](CO)NC(=O)[C@@H](N)Cc1c[nH]cn1)[C@@H](C)O)[C@@H](C)O)C(=O)N[C@@H](CCCNC(=N)N)C(=O)N[C@@H](C)C(=O)N[C@@H](CCCCN)C(=O)N[C@@H](CC(=O)O)C(=O)N[C@@H](Cc1ccccc1)C(=O)N[C@H](C(=O)N[C@@H](CCC(=O)O)C(=O)N[C@@H](Cc1c[nH]c2ccccc12)C(=O)N[C@@H](CC(C)C)C(=O)N[C@@H](CC(C)C)C(=O)N[C@@H](CO)C(=O)N[C@@H](C)C(N)=O)[C@@H](C)CC)C(=O)O [Compound 17] (HELM PEPTIDE1{H.[dS].Q.G.T.F.T.S.D.Y.S.K.Y.L.D.E.K.R.A.K.D.F.I.E.W.L.L.S.A.[am]}|PEPTIDE2{[CCCCCCCCCCCCCCCC(=O)[*:2]].[gGlu]}$PEPTIDE1,PEPTIDE2,17:R3-2:R2$$$V2.0)	–	0.07
CCCCCCCCCCCCCCCC(=O)N[C@@H](CCC(=O)NCCCC[C@H](NC(=O)[C@H](CCC(=O)O)NC(=O)[C@H](CC(=O)O)NC(=O)[C@H](CC(C)C)NC(=O)[C@H](Cc1ccc(O)cc1)NC(=O)[C@H](CCCCN)NC(=O)[C@H](CO)NC(=O)[C@H](Cc1ccc(O)cc1)NC(=O)[C@H](CC(=O)O)NC(=O)[C@H](CO)NC(=O)[C@@H](NC(=O)[C@H](Cc1ccccc1)NC(=O)[C@@H](NC(=O)CNC(=O)[C@H](Cc1c[nH]cn1)NC(=O)[C@H](CO)NC(=O)[C@@H](N)Cc1c[nH]cn1)[C@@H](C)O)[C@@H](C)O)C(=O)N[C@@H](CCCNC(=N)N)C(=O)N[C@@H](C)C(=O)N[C@@H](CCCCN)C(=O)N[C@@H](CC(=O)O)C(=O)N[C@@H](Cc1ccccc1)C(=O)N[C@H](C(=O)N[C@@H](CCC(=O)O)C(=O)N[C@@H](Cc1c[nH]c2ccccc12)C(=O)N[C@@H](CC(C)C)C(=O)N[C@@H](CC(C)C)C(=O)N[C@@H](CO)C(=O)N[C@@H](C)C(N)=O)[C@@H](C)CC)C(=O)O [Compound 18] (HELM PEPTIDE1{H.S.H.G.T.F.T.S.D.Y.S.K.Y.L.D.E.K.R.A.K.D.F.I.E.W.L.L.S.A.[am]}|PEPTIDE2{[CCCCCCCCCCCCCCCC(=O)[*:2]].[gGlu]}$PEPTIDE1,PEPTIDE2,17:R3-2:R2$$$V2.0)	0.09	–
